Results published in patent US10335453B2, “Compositions and methods for improving sexual function” (Nymox Corporation, priority 2017, dated 2019).
Peptide text beside a SMILES is read from it.

Columns and labels:
[1] = test system: BPH patients with significant sexual problems; assay: Example 2: SFQ, treatment naïve BPH patients with significant sexual problems (baseline SFQ<=3), one intraprostatic injection, 12 months; type: in vivo, human; conditions: at 12 months
Description: One hundred twenty three (123) BPH patients with significant sexual problems and with no prior history of any conventional approved medical or surgical treatment (“treatment naïve”) for BPH were given an intraprostatic injection of either (a) NX-1207 (2.5 mg) in phosphate buffered saline pH 7.2 (“PBS”) (n=75) or (b) PBS alone (n=48), under double-blind conditions by a urologist in an office setting under ultrasound guidance. These patients were followed for 12 months after treatment and their progress was monitored by urological investigations. Prior to their treatment each patient's sexual function was assessed by history and each patient completed a Sexual Function Questionnaire (“SFQ”) which scored from 0 to 12 points the degree to which the patient considered they had any problems with 1. lack of sex drive, 2. ability to get and keep an erection, and 3. problems with ejaculation; (Problem Assessment Scale of the Brief Male Sexual Function Inventory). A higher score indicates improvement with a better sexual functional self-assessment and less of a sexual problem; a lower score indicates worsening with more of a sexual problem. Many approved BPH medications and treatments, and conditions are associated with lower scores. All 123 BPH patients in this group had baseline pre-treatment SFQ scores<=3 points indicating significant sexual problems. […]

[2] = test system: BPH patients; assay: Example 7: proportion of BPH patients with SFQ<=3, NX-1207 in treatment naive vs previously treated patients; type: in vivo, human; conditions: at 12.6-51.1 months
Description: Three hundred and twenty four (324) BPH patients were given an intraprostatic injection of either (a) NX-1207 (2.5 mg) in phosphate buffered saline pH 7.2 (“PBS”) (n=189) or (b) PBS alone (n=135), under double-blind conditions by a urologist in an office setting under ultrasound guidance. These patients were followed for 12.6-51.1 months after treatment and their progress was monitored by urological investigations. Prior to their treatment each patient's sexual function was assessed by history and each patient completed a Sexual Function Questionnaire (“SFQ”) which scored from 0 to 12 points the degree to which the patient considered they had any problems with 1. lack of sex drive, 2. ability to get and keep an erection, and 3. problems with ejaculation; (Problem Assessment Scale of the Brief Male Sexual Function Inventory). A higher score indicates improvement with a better sexual functional self-assessment and less of a sexual problem; a lower score indicates worsening with more of a sexual problem. Many approved BPH medications and treatments are associated with lower scores. Eighty nine (89) BPH patients in this group had baseline pre-treatment SFQ scores<=3 points indicating significant sexual problems. The SFQ was subsequently re-administered 12.6-51.1 months post-treatment. […]

[3] = test system: patients with BPH; assay: Example 1: Sexual Function Questionnaire (SFQ), treatment naïve BPH patients, one intraprostatic injection, 12 months follow-up; type: in vivo, human; conditions: at 12 months
Description: Three hundred and seventy (370) patients with BPH and with no prior history of any conventional approved medical or surgical treatment (“treatment naïve”) for BPH were given an intraprostatic injection of either (a) NX-1207 (2.5 mg) in phosphate buffered saline pH 7.2 (“PBS”) (n=213) or (b) PBS alone (n=157), under double-blind conditions by a urologist in an office setting under ultrasound guidance. These patients were followed for 12 months after treatment and their progress was monitored by urological investigations. Prior to their treatment each patient's sexual function was assessed by history and each patient completed a Sexual Function Questionnaire (“SFQ”) which scored from 0 to 12 points the degree to which the patient considered they had any problems with 1. lack of sex drive, 2. ability to get and keep an erection, and 3. problems with ejaculation, (Problem Assessment Scale of the Brief Male Sexual Function Inventory). A higher score indicates improvement with a better sexual functional self-assessment and less of a sexual problem; a lower score indicates worsening with more of a sexual problem. Many approved BPH medications and treatments are associated with lower scores. The SFQ was subsequently re-administered 12 months post-treatment. The difference from baseline score in the SFQ was compared in NX-1207 patients vs results in patients who received PBS alone.

[4] = test system: prostate gland; conditions: human, in vivo; cited from earlier work
[5] = test system: BPH patients; assay: Example 4: proportion with no worsening or improvement in SFQ, two NX-1207 injections vs PBS followed by one NX-1207 injection; parameters: species or system human; conditions: in vivo
Description: One hundred and fifty (150) BPH patients with no prior history of any conventional approved medical or surgical treatment (“treatment naïve”) for BPH were given an intraprostatic injection of either (a) NX-1207 (2.5 mg) in phosphate buffered saline pH 7.2 (“PBS”) (n=83) or (b) PBS alone (n=67), under double-blind conditions by a urologist in an office setting under ultrasound guidance. All patients were followed for a period of 12.6-51.1 months and then treated by a second open-label injection of NX-1207 (2.5 mg) in PBS. Prior to their treatment each patient's sexual function was assessed by history and each patient completed a Sexual Function Questionnaire (“SFQ”) which scored from 0 to 12 points the degree to which the patient considered they had any problems with 1. lack of sex drive, 2. ability to get and keep an erection, and 3. problems with ejaculation, (Problem Assessment Scale of the Brief Male Sexual Function Inventory). A higher score indicates improvement with a better sexual functional self-assessment and less of a sexual problem; a lower score indicates worsening with more of a sexual problem. Many approved BPH medications and treatments are associated with lower scores. The SFQ was subsequently re-administered 6 months post second treatment. […]

[6] = test system: BPH patients; assay: Example 5: SFQ long-term mean change, treatment naive BPH patients, one injection, 12.6-51.1 months; type: in vivo, human; conditions: at 12.6-51.1 months
Description: One hundred and fifty (150) BPH patients with no prior history of any conventional approved medical or surgical treatment (“treatment naive”) for BPH were given an intraprostatic injection of either (a) (2.5 mg) NX-1207 (2.5 mg) in phosphate buffered saline pH 7.2 (“PBS”) (n=83) or (b) PBS alone (n=67) under double-blind conditions by a urologist in an office setting under ultrasound guidance. These patients were followed for 12.6-51.1 months after treatment and their progress was monitored by urological investigations. Prior to their treatment each patient's sexual function was assessed by history and each patient completed a Sexual Function Questionnaire (“SFQ”) which scored from 0 to 12 points the degree to which the patient considered they had any problems with 1. lack of sex drive, 2. ability to get and keep an erection, and 3. problems with ejaculation; (Problem Assessment Scale of the Brief Male Sexual Function Inventory). A higher score indicates improvement with a better sexual functional self-assessment and less of a sexual problem; a lower score indicates worsening with more of a sexual problem. Many approved BPH medications and treatments are associated with lower scores. The SFQ was subsequently re-administered 12.6-51.1 months post-treatment.

[7] = test system: BPH patients; assay: Example 3: SFQ mean change, treatment naïve BPH patients, two NX-1207 injections vs PBS followed by one NX-1207 injection; conditions: human, in vivo
Description: One hundred and fifty six (156) BPH patients with no prior history of any conventional approved medical or surgical treatment (“treatment naïve”) for BPH were given an intraprostatic injection of either (a) NX-1207 (2.5 mg) in phosphate buffered saline pH 7.2 (“PBS”) (n=88) or (b) PBS alone (n=68), under double-blind conditions by a urologist in an office setting under ultrasound guidance. All patients were followed for a period of 12.6-51.1 months and then treated by a second open-label injection of NX-1207 (2.5 mg) in PBS. Prior to their treatment each patient's sexual function was assessed by history and each patient completed a Sexual Function Questionnaire (“SFQ”) which scored from 0 to 12 points the degree to which the patient considered they had any problems with 1. lack of sex drive, 2. ability to get and keep an erection, and 3. problems with ejaculation, (Problem Assessment Scale of the Brief Male Sexual Function Inventory). A higher score indicates improvement with a better sexual functional self-assessment and less of a sexual problem; a lower score indicates worsening with more of a sexual problem. Many approved BPH medications and treatments are associated with lower scores. The SFQ was subsequently re-administered 6 months post second treatment. […]

[8] = test system: BPH patients; assay: Example 6: proportion of treatment-naive BPH patients with SFQ<=3, NX-1207 vs PBS, 12.6-51.1 months; type: in vivo, human; conditions: at 12.6-51.1 months
Description: Three hundred twenty four (324) BPH patients were given an intraprostatic injection of either (a) NX-1207 (2.5 mg) in phosphate buffered saline pH 7.2 (“PBS”) (n=189) or (b) PBS alone (n=135), under double-blind conditions by a urologist in an office setting under ultrasound guidance. These patients were followed for 12.6-51.1 months after treatment and their progress was monitored by urological investigations. Prior to their treatment each patient's sexual function was assessed by history and each patient completed a Sexual Function Questionnaire (“SFQ”) which scored from 0 to 12 points the degree to which the patient considered they had any problems with 1. lack of sex drive, 2. ability to get and keep an erection, and 3. problems with ejaculation; (Problem Assessment Scale of the Brief Male Sexual Function Inventory). A higher score indicates improvement with a better sexual functional self-assessment and less of a sexual problem; a lower score indicates worsening with more of a sexual problem. Many approved BPH medications and treatments are associated with lower scores. Eighty nine (89) BPH patients in this group had baseline pre-treatment SFQ scores<=3 points indicating significant sexual problems. The SFQ was subsequently re-administered 12.6-51.1 months post-treatment. […]

## CC[C@H](C)[C@H](N)C(=O)N[C@@H](CC(=O)O)C(=O)N[C@@H](CCC(N)=O)C(=O)N[C@@H](CCC(N)=O)C(=O)N[C@H](C(=O)N[C@@H](CC(C)C)C(=O)N[C@@H](CO)C(=O)N[C@@H](CCCNC(=N)N)C(=O)N[C@H](C(=O)N[C@@H](CCCCN)C(=O)N[C@@H](CC(C)C)C(=O)N[C@@H](CCC(=O)O)C(=O)N[C@H](C(=O)N[C@@H](CCCCN)C(=O)N[C@@H](CCCNC(=N)N)C(=O)N[C@@H](CS)C(=O)N[C@@H](CC(C)C)C(=O)O)[C@@H](C)CC)[C@@H](C)CC)C(C)C [SEQ ID NO: 66, IDQQVLSRIKLEIKRCL] (H-IDQQVLSRIKLEIKRCL-OH)
[1]
  sexual adverse events attributable to NX-1207: no significant incidence of sexual adverse events
[2]
  sexual adverse events attributable to NX-1207: no incidence of significant sexual adverse events
[3]
  sexual adverse events attributable to NX-1207: no significant incidence of sexual adverse events
[4]
  safety profile: excellent safety profile
[5]
  sexual adverse events attributable to NX-1207: no significant incidence of sexual adverse events
[6]
  sexual adverse events attributable to NX-1207: no significant incidence of sexual adverse events
[7]
  sexual adverse events attributable to NX-1207: no significant incidence of sexual adverse events
[8]
  sexual adverse events attributable to NX-1207: no significant incidence of sexual adverse events
